Where a SMILES comes first, the peptide text is derived from it. [ ]: non-standard residue; d: D form. The star is where a group is joined. Furoyl(5-pyrazol-1-ylmethyl) = O=C(c1ccc(Cn2cccn2)o1)*; Phe(4-F) = N[C@@H](Cc1ccc(F)cc1)C(=O)O; Picolinoyl(6-Me) = Cc1cccc(C(=O)*)n1; X13 = CN1CCN(Cc2ccc(C(=O)*)o2)CC1; X1 = Cc1cnn(Cc2ccc(C(=O)*)o2)c1; X11 = CCN(CC)Cc1ccc(C(=O)*)o1; X12 = O=C(c1csc(-c2cccs2)n1)*; X14 = O=C(c1csc(-c2ccsc2)n1)*; X15 = CCOc1ccc(CC(=O)*)cc1OCC; X7 = CC(C)COc1ccc(CC(=O)*)cc1; X4 = O=C(c1ccc(Cn2ccnc2)o1)*; Picolinoyl = O=C(c1ccccn1)*; X16 = CCOc1ccc(CC(=O)*)cc1; X9 = CCCOc1ccc(CC(=O)*)cc1; X10 = CCOc1cccc(C(=O)*)n1; X8 = COc1cccc(C(=O)*)n1
How the values were obtained:
CDK2/Cyclin A2 = CDK2/Cyclin A2 (Homo sapiens, UniProt P24941); assay: Inhibition of human recombinant CDK2/cyclin A using fluoresceinyl-Ahx-Pro-Val-Lys-Arg-Arg-Leu-Phe-Gly as substrate after 45 mins by fluorescence polarization assay; format: protein-complex assay
[1] = molecular target: Cyclin-dependent kinase 4/cyclin D1 (Homo sapiens, UniProt P24385); assay: Inhibition of human recombinant CDK4/cyclin D1 using fluoresceinyl-Ahx-Pro-Val-Lys-Arg-Arg-Leu-(3ClPhe)-Gly as substrate after 45 mins by fluorescence polarization assay; format: protein-complex assay
Sequence of Cyclin-dependent kinase 4/cyclin D1 (P11802 whole entry): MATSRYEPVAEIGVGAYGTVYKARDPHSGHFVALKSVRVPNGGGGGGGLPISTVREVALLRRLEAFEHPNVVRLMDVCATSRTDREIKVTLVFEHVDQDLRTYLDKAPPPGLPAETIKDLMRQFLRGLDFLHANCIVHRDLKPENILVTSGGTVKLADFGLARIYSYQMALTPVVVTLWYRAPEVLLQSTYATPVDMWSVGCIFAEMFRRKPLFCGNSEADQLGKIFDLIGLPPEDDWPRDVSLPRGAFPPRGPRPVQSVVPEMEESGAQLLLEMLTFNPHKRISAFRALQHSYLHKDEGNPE
Sequence of Cyclin-dependent kinase 4/cyclin D1 (P24385 whole entry): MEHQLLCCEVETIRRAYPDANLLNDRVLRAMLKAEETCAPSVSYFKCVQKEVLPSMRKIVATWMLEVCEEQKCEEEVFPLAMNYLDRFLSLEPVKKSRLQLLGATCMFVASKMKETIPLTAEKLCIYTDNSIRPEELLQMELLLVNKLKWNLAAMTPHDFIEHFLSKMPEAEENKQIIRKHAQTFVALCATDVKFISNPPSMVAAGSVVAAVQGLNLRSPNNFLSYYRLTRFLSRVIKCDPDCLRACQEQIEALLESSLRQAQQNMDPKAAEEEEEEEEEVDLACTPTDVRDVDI

| Compound | IC50 (CDK2/Cyclin A2) | IC50 [1] |
| --- | --- | --- |
| CC(C)C[C@H](NC(=O)[C@H](CCCN=C(N)N)NC(=O)c1ccccn1)C(=O)N[C@@H](CC(N)=O)C(=O)N[C@@H](Cc1ccc(F)cc1)C(=O)O (Picolinoyl-RLN[Phe(4-F)]-OH) | 29.2 µM | 48.4 µM |
| CC[C@H](C)[C@H](NC(=O)[C@H](CC(C)C)NC(=O)[C@H](CCCN=C(N)N)NC(=O)c1ccc(Cn2cc(C)cn2)o1)C(=O)N[C@@H](Cc1ccccc1)C(=O)O (X1-RLIF-OH) | > 100 µM | > 180 µM |
| CC[C@H](C)[C@H](NC(=O)[C@H](CC(C)C)NC(=O)[C@H](CCCN=C(N)N)NC(=O)c1ccc(Cn2ccnc2)o1)C(=O)N[C@@H](Cc1ccccc1)C(=O)O (X4-RLIF-OH) | > 100 µM | 159 µM |
| CC(C)COc1ccc(CC(=O)N[C@@H](CCCNC(=N)N)C(=O)N[C@@H](CC(C)C)C(=O)N[C@@H](CC(N)=O)C(=O)N[C@@H](Cc2ccc(F)cc2)C(=O)O)cc1 (X7-RLN[Phe(4-F)]-OH) | > 100 µM | > 100 µM |
| COc1cccc(C(=O)N[C@@H](CCCN=C(N)N)C(=O)N[C@@H](CC(C)C)C(=O)N[C@@H](CC(N)=O)C(=O)N[C@@H](Cc2ccc(F)cc2)C(=O)O)n1 (X8-RLN[Phe(4-F)]-OH) | 36.4 µM | 36.9 µM |
| CCCOc1ccc(CC(=O)N[C@@H](CCCN=C(N)N)C(=O)N[C@@H](CC(C)C)C(=O)N[C@@H](CC(N)=O)C(=O)N[C@@H](Cc2ccc(F)cc2)C(=O)O)cc1 (X9-RLN[Phe(4-F)]-OH) | > 100 µM | > 50 µM |
| CCOc1cccc(C(=O)N[C@@H](CCCNC(=N)N)C(=O)N[C@@H](CC(C)C)C(=O)N[C@@H](CC(N)=O)C(=O)N[C@@H](Cc2ccc(F)cc2)C(=O)O)n1 (X10-RLN[Phe(4-F)]-OH) | 39.7 µM | > 100 µM |
| CC[C@H](C)[C@H](NC(=O)[C@H](CC(C)C)NC(=O)[C@H](CCCNC(=N)N)NC(=O)c1ccc(CN(CC)CC)o1)C(=O)N[C@@H](Cc1ccccc1)C(=O)O (X11-RLIF-OH) | 43.5 µM | 41.9 µM |
| CC[C@H](C)[C@H](NC(=O)[C@H](CC(C)C)NC(=O)[C@H](CCCNC(=N)N)NC(=O)c1csc(-c2cccs2)n1)C(=O)N[C@@H](Cc1ccccc1)C(=O)O (X12-RLIF-OH) | > 180 µM | > 180 µM |
| CC[C@H](C)[C@H](NC(=O)[C@H](CC(C)C)NC(=O)[C@H](CCCNC(=N)N)NC(=O)c1ccc(CN2CCN(C)CC2)o1)C(=O)N[C@@H](Cc1ccccc1)C(=O)O (X13-RLIF-OH) | 50.3 µM | 43.2 µM |
| CC[C@H](C)[C@H](NC(=O)[C@H](CC(C)C)NC(=O)[C@H](CCCN=C(N)N)NC(=O)c1csc(-c2ccsc2)n1)C(=O)N[C@@H](Cc1ccccc1)C(=O)O (X14-RLIF-OH) | 56.2 µM | > 180 µM |
| CCOc1ccc(CC(=O)N[C@@H](CCCNC(=N)N)C(=O)N[C@@H](CC(C)C)C(=O)N[C@@H](CC(N)=O)C(=O)N[C@@H](Cc2ccc(F)cc2)C(=O)O)cc1OCC (X15-RLN[Phe(4-F)]-OH) | 5.2 µM | 3 µM |
| CCOc1ccc(CC(=O)N[C@@H](CCCN=C(N)N)C(=O)N[C@@H](CC(C)C)C(=O)N[C@@H](CC(N)=O)C(=O)N[C@@H](Cc2ccc(F)cc2)C(=O)O)cc1 (X16-RLN[Phe(4-F)]-OH) | > 100 µM | > 100 µM |
| CC[C@H](C)[C@H](NC(=O)[C@H](CC(C)C)NC(=O)[C@H](CCCN=C(N)N)NC(=O)c1ccc(Cn2cccn2)o1)C(=O)N[C@@H](Cc1ccccc1)C(=O)O ({Furoyl(5-pyrazol-1-ylmethyl)}-RLIF-OH) | > 100 µM | > 100 µM |
| CC[C@H](C)[C@H](NC(=O)[C@H](CC(C)C)NC(=O)[C@H](CCCNC(=N)N)NC(=O)c1cccc(C)n1)C(=O)N[C@@H](Cc1ccccc1)C(=O)O ({Picolinoyl(6-Me)}-RLIF-OH) | > 100 µM | 85.7 µM |

Reference: ChEMBL document CHEMBL3098101, “Fragment based discovery of arginine isosteres through REPLACE: towards non-ATP competitive CDK inhibitors” (Bioorg Med Chem, 2014)
